Test results from ChEMBL document CHEMBL1146310, “Amplification of DNA-binding affinities of protoberberine alkaloids by appended polyamines” (Bioorg Med Chem Lett, 2007).

The compounds below were run on DNA (assay: Binding affinity to calf thymus DNA). Conditions: Bos taurus.
Assay type: nucleic-acid assay

SMILES	Kapp
COc1cc2c(cc1OCCCN)CC[n+]1cc3c(OCCCN)c(OC)ccc3cc1-2	2.81 10^5/M
COc1cc2c(cc1OC)-c1cc3ccc(OC)c(OC)c3c[n+]1CC2	8.72 10^3/M
COc1cc2c(cc1OCCCNC(=O)C(N)CCCCNC(=O)C(N)CCCCN)CC[n+]1cc3c(OCCCNC(=O)C(N)CCCCNC(=O)C(N)CCCCN)c(OC)ccc3cc1-2 (centres undefined)	1.15 10^7/M
COc1cc2c(cc1OCCCNC(=O)C(N)CCCCN)CC[n+]1cc3c(OCCCNC(=O)C(N)CCCCN)c(OC)ccc3cc1-2 (centres undefined)	1.08 10^7/M
